Like-named read-outs stand apart in the source and are kept apart here.
How the values were obtained:
Experiment in all cases: HotSpot kinase profiling
Format in all cases: biochemical
[1] = molecular target: T1, BRAF (Homo sapiens, UniProt P15056)
T1 construct: purchased Reaction Biology Corp
Procedure, shortened: (§1)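 Percent inhibition, averaged when run more than once and referenced to a DMSO negative control, came from a radioactive filter-binding readout on P81 paper. Reactions of kinase with freshly made substrate and cofactors ran for 2 h at room temperature.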

[2] = molecular target: T2, CAMKK2 (Homo sapiens, UniProt Q96RR4)
T2 construct: purchased Reaction Biology Corp
T2 sequence (Q96RR4 whole entry): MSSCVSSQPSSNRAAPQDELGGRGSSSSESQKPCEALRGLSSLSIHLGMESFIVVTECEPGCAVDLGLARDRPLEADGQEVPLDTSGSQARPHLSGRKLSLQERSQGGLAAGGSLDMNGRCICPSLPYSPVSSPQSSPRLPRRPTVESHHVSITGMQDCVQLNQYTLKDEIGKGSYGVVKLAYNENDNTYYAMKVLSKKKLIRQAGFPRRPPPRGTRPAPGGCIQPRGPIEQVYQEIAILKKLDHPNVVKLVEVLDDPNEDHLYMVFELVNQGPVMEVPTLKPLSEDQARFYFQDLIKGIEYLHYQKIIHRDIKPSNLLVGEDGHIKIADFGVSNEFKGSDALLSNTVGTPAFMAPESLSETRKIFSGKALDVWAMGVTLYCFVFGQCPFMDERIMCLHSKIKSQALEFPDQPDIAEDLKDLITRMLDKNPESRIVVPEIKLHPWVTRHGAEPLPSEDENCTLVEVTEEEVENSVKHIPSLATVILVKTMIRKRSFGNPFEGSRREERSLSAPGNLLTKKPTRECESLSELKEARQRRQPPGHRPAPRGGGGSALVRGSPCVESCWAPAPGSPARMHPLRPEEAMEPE
Procedure, shortened: as §1

[3] = molecular target: T3, PAK3 (Homo sapiens, UniProt O75914)
T3 construct: purchased Reaction Biology Corp
T3 sequence (O75914 whole entry): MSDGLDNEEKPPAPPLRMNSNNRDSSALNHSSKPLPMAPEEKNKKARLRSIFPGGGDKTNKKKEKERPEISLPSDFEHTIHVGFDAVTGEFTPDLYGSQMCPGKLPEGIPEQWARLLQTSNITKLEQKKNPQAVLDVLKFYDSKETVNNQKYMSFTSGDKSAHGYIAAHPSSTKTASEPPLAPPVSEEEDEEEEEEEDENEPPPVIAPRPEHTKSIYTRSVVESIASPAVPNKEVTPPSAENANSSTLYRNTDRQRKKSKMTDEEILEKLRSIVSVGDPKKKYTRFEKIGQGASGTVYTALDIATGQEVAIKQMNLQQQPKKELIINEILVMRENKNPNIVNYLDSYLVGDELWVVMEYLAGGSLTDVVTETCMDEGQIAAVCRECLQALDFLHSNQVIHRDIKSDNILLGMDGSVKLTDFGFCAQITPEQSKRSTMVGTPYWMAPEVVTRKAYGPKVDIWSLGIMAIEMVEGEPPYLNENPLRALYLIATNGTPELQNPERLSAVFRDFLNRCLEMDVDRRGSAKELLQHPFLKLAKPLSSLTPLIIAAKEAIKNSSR
Procedure, shortened: as §1

[4] = molecular target: T4, PBK/TOPK (Homo sapiens, UniProt Q96KB5)
T4 construct: purchased Reaction Biology Corp
T4 sequence (Q96KB5 1-322): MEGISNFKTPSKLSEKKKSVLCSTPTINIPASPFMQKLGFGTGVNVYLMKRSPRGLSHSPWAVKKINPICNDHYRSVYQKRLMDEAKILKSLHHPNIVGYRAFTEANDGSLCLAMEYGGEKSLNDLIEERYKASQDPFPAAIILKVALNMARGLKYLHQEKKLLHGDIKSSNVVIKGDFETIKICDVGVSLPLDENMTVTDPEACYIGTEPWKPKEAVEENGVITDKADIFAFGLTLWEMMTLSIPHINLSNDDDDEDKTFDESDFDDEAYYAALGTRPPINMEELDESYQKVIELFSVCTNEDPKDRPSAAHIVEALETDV
Procedure, shortened: as §1

[5] = molecular target: T5, SIK1 (Homo sapiens, UniProt P57059)
T5 construct: purchased Reaction Biology Corp
T5 sequence (P57059 whole entry): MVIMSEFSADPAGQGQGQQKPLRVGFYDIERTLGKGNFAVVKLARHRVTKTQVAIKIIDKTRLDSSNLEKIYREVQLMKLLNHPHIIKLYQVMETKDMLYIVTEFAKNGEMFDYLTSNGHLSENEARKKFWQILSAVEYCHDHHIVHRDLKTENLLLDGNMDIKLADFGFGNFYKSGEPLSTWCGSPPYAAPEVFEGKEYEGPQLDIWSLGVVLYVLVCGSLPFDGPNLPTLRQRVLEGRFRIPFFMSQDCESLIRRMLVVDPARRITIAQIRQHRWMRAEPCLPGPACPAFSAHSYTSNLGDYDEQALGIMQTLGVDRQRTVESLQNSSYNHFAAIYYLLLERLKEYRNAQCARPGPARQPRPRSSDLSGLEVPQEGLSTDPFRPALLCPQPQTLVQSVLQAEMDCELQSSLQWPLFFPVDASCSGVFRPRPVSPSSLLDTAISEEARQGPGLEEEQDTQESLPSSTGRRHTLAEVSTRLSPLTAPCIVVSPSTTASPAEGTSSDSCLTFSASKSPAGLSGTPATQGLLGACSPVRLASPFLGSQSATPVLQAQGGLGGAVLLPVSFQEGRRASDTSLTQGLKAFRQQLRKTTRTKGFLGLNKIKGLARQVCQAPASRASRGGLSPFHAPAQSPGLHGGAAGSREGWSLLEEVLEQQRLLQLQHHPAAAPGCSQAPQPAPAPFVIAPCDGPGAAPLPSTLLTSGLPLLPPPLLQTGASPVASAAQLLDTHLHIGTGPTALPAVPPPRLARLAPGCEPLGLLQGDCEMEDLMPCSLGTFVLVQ
Procedure, shortened: as §1

[6] = molecular target: T6, TRKA (Homo sapiens, UniProt P04629)
T6 construct: purchased Reaction Biology Corp
Procedure, shortened: as §1

[7] = molecular target: T7, MEK3 (Homo sapiens, UniProt P46734)
T7 construct: purchased Reaction Biology Corp
T7 sequence (P46734 1-347): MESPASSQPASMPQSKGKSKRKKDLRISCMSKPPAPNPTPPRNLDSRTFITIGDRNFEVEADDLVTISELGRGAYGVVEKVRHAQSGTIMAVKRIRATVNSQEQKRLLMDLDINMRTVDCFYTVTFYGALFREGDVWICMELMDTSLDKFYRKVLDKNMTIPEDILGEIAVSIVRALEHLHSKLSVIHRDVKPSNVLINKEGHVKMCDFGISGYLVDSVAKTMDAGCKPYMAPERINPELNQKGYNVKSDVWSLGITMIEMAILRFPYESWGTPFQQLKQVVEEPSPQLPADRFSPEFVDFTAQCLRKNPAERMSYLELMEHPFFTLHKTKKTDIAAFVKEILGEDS
Procedure, shortened: as §1

[8] = molecular target: T8, P70S6Kb/RPS6KB2 (Homo sapiens, UniProt Q9UBS0)
T8 construct: purchased Reaction Biology Corp
Procedure, shortened: as §1

[9] = molecular target: T9, CDK2/cyclin A1 (Homo sapiens, UniProt P24941)
T9 construct: purchased Reaction Biology Corp
Procedure, shortened: as §1

[10] = molecular target: T10, EPHA5 (Homo sapiens, UniProt P54756)
T10 construct: purchased Reaction Biology Corp
T10 sequence (P54756 25-1037): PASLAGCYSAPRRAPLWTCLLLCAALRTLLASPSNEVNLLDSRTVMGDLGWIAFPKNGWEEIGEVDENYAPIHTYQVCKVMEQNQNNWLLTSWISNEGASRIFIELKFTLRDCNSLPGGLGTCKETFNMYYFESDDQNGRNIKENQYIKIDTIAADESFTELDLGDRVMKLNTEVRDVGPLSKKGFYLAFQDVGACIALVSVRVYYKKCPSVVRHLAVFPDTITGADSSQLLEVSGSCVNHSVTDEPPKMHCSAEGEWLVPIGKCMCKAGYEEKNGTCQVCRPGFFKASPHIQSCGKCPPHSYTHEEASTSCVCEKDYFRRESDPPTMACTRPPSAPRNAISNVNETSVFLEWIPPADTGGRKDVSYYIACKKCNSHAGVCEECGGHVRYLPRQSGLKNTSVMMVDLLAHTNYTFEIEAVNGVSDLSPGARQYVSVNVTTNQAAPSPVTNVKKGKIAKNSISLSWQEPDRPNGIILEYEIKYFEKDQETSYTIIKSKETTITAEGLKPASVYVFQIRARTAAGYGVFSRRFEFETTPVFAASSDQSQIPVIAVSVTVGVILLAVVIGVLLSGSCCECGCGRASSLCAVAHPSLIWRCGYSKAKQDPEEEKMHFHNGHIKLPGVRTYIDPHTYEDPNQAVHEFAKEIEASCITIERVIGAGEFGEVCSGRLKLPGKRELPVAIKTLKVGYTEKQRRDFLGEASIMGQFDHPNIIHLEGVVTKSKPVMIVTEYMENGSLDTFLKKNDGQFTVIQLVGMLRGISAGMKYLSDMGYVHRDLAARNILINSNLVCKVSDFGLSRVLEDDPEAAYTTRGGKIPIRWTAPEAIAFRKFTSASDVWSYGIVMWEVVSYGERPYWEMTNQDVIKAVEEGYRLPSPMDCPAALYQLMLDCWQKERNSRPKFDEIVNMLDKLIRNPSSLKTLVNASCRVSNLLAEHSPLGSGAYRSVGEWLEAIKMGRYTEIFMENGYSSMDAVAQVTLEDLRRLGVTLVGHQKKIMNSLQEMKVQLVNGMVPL
Procedure, shortened: as §1

[11] = molecular target: T11, CDK4/cyclin D3 (Homo sapiens, UniProt P11802)
T11 construct: purchased Reaction Biology Corp
Procedure, shortened: as §1

[12] = molecular target: T12, MEKK1 (Homo sapiens, UniProt Q13233)
T12 construct: purchased Reaction Biology Corp
T12 sequence (Q13233 whole entry): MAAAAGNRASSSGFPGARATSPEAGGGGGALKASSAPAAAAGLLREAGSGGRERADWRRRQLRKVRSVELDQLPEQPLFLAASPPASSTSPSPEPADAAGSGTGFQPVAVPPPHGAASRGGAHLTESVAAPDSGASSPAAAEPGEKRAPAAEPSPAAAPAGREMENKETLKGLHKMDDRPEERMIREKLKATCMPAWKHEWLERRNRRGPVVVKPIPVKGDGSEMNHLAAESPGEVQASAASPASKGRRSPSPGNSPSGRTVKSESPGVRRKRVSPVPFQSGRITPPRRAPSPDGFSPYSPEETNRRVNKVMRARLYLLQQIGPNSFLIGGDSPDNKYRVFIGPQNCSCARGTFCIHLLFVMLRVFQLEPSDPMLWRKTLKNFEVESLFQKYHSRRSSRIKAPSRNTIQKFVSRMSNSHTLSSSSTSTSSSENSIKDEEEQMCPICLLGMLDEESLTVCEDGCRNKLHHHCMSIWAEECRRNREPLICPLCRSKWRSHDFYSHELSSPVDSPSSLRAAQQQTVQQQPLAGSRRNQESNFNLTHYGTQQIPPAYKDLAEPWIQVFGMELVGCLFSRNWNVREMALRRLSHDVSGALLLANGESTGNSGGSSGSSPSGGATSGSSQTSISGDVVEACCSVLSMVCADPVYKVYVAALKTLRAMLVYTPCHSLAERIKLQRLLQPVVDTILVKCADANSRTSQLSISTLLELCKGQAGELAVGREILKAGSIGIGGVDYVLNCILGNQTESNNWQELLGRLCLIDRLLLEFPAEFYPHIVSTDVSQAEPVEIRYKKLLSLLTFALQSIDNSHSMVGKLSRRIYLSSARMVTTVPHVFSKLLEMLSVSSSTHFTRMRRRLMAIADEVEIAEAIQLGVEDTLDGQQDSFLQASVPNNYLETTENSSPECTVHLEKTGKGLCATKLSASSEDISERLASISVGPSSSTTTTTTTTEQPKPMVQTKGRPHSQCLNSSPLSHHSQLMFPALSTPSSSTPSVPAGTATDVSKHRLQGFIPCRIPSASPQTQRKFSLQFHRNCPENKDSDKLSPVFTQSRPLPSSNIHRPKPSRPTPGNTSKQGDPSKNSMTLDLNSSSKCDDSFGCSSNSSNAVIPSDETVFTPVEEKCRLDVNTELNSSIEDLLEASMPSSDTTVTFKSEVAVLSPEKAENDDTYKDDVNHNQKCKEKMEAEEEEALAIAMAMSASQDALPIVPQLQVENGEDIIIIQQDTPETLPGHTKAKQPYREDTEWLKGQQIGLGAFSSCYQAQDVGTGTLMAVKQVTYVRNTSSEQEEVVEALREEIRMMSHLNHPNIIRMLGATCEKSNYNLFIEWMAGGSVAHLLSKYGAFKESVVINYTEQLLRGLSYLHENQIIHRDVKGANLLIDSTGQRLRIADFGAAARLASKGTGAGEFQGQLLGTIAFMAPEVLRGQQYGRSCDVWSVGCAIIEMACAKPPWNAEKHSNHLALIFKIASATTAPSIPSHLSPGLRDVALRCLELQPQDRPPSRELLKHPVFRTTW
Procedure, shortened: as §1

[13] = molecular target: T13, VRK2 (Homo sapiens, UniProt Q86Y07)
T13 construct: purchased Reaction Biology Corp
T13 sequence (Q86Y07 whole entry): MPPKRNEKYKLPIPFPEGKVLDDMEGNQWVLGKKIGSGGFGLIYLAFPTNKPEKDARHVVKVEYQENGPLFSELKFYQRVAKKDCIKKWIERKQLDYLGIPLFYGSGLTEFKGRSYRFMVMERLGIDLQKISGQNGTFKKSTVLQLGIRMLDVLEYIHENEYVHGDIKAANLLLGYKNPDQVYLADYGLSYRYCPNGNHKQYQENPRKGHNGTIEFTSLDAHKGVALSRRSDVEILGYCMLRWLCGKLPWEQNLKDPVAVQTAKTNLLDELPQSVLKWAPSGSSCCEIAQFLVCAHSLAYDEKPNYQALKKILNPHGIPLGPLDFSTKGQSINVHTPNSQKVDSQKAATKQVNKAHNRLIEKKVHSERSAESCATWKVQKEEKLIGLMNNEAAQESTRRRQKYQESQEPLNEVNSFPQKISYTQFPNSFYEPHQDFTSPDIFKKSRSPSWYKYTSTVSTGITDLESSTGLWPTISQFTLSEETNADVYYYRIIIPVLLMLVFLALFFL
Procedure, shortened: as §1

[14] = read-out: % Enzyme Activity (relative to DMSO controls) Run 1
[15] = read-out: % Enzyme Activity (relative to DMSO controls) Run 2

`C=CC(=O)Nc1cccc(Nc2nc(Nc3ccc(OCCOC)c(F)c3)ncc2F)c1` [Compound 2] was tested, and the inhibition at 3 µM [1] was 0.04%, the remaining activity at 3 µM [1, 14] was 101% and the remaining activity at 3 µM [1, 15] was 99.1%. The inhibition at 3 µM [2] was 26.8%, the remaining activity at 3 µM [2, 14] was 74.7% and the remaining activity at 3 µM [2, 15] was 71.8%. It also gave an inhibition at 3 µM [3] of 6.46%, a remaining activity at 3 µM [3, 14] of 91.9% and a remaining activity at 3 µM [3, 15] of 95.2%. It also gave an inhibition at 3 µM [4] of 3.07%, a remaining activity at 3 µM [4, 14] of 98.6% and a remaining activity at 3 µM [4, 15] of 95.3%. The inhibition at 3 µM [5] was 51.4%, the remaining activity at 3 µM [5, 14] was 48.4% and the remaining activity at 3 µM [5, 15] was 48.7%. For the same molecule, the inhibition at 3 µM [6] was -17.7%, the remaining activity at 3 µM [6, 14] was 117% and the remaining activity at 3 µM [6, 15] was 118%. It also gave an inhibition at 3 µM [7] of -15.3%, a remaining activity at 3 µM [7, 14] of 117% and a remaining activity at 3 µM [7, 15] of 113%. For the same molecule, the inhibition at 3 µM [8] was 4.15%, the remaining activity at 3 µM [8, 14] was 95.6% and the remaining activity at 3 µM [8, 15] was 96.1%. It also gave an inhibition at 3 µM [9] of 22%, a remaining activity at 3 µM [9, 14] of 78.2% and a remaining activity at 3 µM [9, 15] of 77.7%. It also gave an inhibition at 3 µM [10] of 8.66%, a remaining activity at 3 µM [10, 14] of 89.1% and a remaining activity at 3 µM [10, 15] of 93.6%. For the same molecule, the inhibition at 3 µM [11] was 5.15%, the remaining activity at 3 µM [11, 14] was 95.5% and the remaining activity at 3 µM [11, 15] was 94.2%. It also gave an inhibition at 3 µM [12] of -14.7%, a remaining activity at 3 µM [12, 14] of 113% and a remaining activity at 3 µM [12, 15] of 117%. It also gave an inhibition at 3 µM [13] of 5.06%, a remaining activity at 3 µM [13, 14] of 94% and a remaining activity at 3 µM [13, 15] of 95.9%.

From patent US9492471B2, “Methods of treating a disease or disorder associated with Bruton'S Tyrosine Kinase” (Celgene Avilomics Research, Inc., priority 2013, dated 2016)
